Data published in US5516779A, “17β-substituted-6-azasteroid derivatives useful as 5α-reductase inhibitors” (Merck & Co., Inc., priority 1994, dated 1996).
pIC50: −log10 of the molar value. Read-outs that look alike come from different tables or passages of the source.

Molecular target: T1, 5α-reductase type 1 (Homo sapiens, UniProt P18405)
T1 construct: Samples of human tissue were pulverized using a freezer mill and homogenized; from tissue; host or cells: human scalp tissue, crude nuclear pellet
T1 sequence (P18405 1-259): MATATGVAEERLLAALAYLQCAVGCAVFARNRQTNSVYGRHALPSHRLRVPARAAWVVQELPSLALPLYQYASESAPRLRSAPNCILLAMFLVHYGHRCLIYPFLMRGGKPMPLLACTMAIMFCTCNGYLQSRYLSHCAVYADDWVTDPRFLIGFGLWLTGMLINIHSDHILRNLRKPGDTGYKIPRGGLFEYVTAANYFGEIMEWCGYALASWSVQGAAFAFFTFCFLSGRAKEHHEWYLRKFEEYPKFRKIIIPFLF
Experiment: Inhibition of 5α-reductase type 1 (conversion of testosterone to DHT, human scalp homogenate)
Format: biochemical
Procedure: Samples of human tissue were pulverized using a freezer mill and homogenized in 40 mM potassium phosphate, pH 6.5, 5 mM magnesium sulfate, 25 mM potassium chloride, 1 mM phenylmethylsulfonyl fluoride, 1 mM dithiothreitol (DTT) containing 0.25 M sucrose using a Potter-Elvehjem homogenizer. A crude nuclear pellet was prepared by centrifugation of the homogenate at 1,500 x g for 15 min. The crude nuclear pellet was washed two times and resuspended in two volumes of buffer. Glycerol was added to the resuspended pellet to a final concentration of 20%. The enzyme suspension was frozen in aliquots at -80° C. The prostatic and scalp reductases were stable for at least 4 months when stored under these conditions.
The reaction mixture for the type 1 5α-reductase contained 40 mM potassium phosphate, pH 6.5, […] [7-^3 H]-testosterone, 1 mM dithiothreitol and 500 µM NADPH in a final volume of 100 μl. The reaction mixture for the type 2 5α-reductase contained 40 mM sodium citrate, pH 5.5, 0.3 mM [7-^3 H]-testosterone, 1 mM dithiothreitol and 500 µM NADPH in a final volume of 100 μl. Typically, the assay was initiated by the addition of 50-100 μg prostatic homogenate or 75-200 μg scalp homogenate and incubated at 37° C. After 10-50 min. the reaction was quenched by extraction with 250 μl of a mixture of 70% cyclohexane: 30% ethyl acetate containing 10 μl each DHT and T. The aqueous and organic layers were separated by centrifugation at 14,000 rpm in an Eppendorf microfuge. The organic layer was subjected to normal phase HPLC (10 cm Whatman partisil 5 silica column equilibrated in 1 ml/min 70% cyclohexane: 30% ethyl acetate; retention times: DHT, 6.8-7.2 min.; androstanediol, 7.6-8.0 min.; T, 9.1-9.7 min.). The HPLC system consisted of a Waters Model 680 Gradient System equipped with a Hitachi Model 655α autosampler, Applied Biosystems Model 757 -variable UV detector, and a Radiomatic Model A120 radioactivity analyzer. The conversion of T to DHT was monitored using the radioactivity flow detector by mixing the HPLC effluent with one volume of Flo Scint 1 (Radiomatic). Under the conditions described, the production of DHT was linear for at least 25 min. The only steroids observed with the human prostate and scalp preparations were T, DHT and androstanediol.
Compounds were dissolved in 100% ethanol. The compound to be tested was pre-incubated with the enzyme (either 5α-reductase type 1 or 2) prior to initiation by addition of substrate testosterone. IC50 values represent the concentration of inhibitor required to decrease enzyme conversion of testosterone to dihydrotestosterone by 50% of the control. IC50 values were determined using a 6 point titration where the concentration of the inhibitor was varied from 0.1 to 1000 nM. Representative compounds of this invention were tested in the above described assay for 5α-reductase type 1 and type 2 inhibition.

[1] = 5α-reductase type 1, pH 6.5, 6 point titration, 0.1 to 1000 nM, "under about", read-out: IC50 for inhibition of the type 1 isozyme

CN1C[C@H]2[C@@H]3CCC[C@@]3(C)CC[C@@H]2[C@@]2(C)CCC(=O)C=C12 [XII, 6-methyl-6-aza-androst-4-en-3-one]
pIC50 [1]: > 7.00

CN1C[C@H]2[C@@H]3CC[C@H](O)[C@@]3(C)CC[C@@H]2[C@@]2(C)CCC(=O)C=C12 [XIII, 6-methyl-17-hydroxy-6-aza-androst-4-en-3-one]
pIC50: > 7.00

CN1C[C@@H]2[C@H](CC[C@]3(C)C(=O)CC[C@@H]23)[C@@]2(C)CCC(=O)C=C12 [VII, 6-methyl-6-aza-androst-4-en-3,17-dione]
pIC50 [1]: > 7.00

CCC[C@H]1CC[C@H]2[C@@H]3CN(C)C4=CC(=O)CC[C@]4(C)[C@H]3CC[C@]12C [X, 6-methyl-17-propyl-6-aza-androst-4-en-3-one]
pIC50 [1]: > 7.00

CN1C[C@H]2[C@@H]3CC[C@H](OC(=O)NC(C)(C)C)[C@@]3(C)CC[C@@H]2[C@@]2(C)CCC(=O)C=C12 [XIV, 6-methyl-17-t-butylcarbamoyloxy-6-aza-androst-4-en-3-one]
pIC50 [1]: > 7.00

CC(C)CCC[C@@H](C)[C@H]1CC[C@H]2[C@@H]3CNC4=CC(=O)CC[C@]4(C)[C@H]3CC[C@]12C [XV, 6-aza-cholest-4-en-3-one]
pIC50 [1]: > 7.00

CC(C)CCC[C@@H](C)[C@H]1CC[C@H]2[C@@H]3CN(C)C4=CC(=O)CC[C@]4(C)[C@H]3CC[C@]12C [XVI, 6-methyl-6-aza-cholest-4-en-3-one]
pIC50 [1]: > 7.00
